# Results published in patent US10213433B2 (AbbVie Inc., priority 2010, dated 2019).
# Target: Bcl-2 protein (Homo sapiens (Human), UniProt P10415)
# Experiment: Bcl-2 binding TR-FRET (Time-Resolved Fluorescence-Resonance-Energy-Transfer) assay
# Conditions: inhibition constant for binding to Bcl-2 protein
# Text: The smaller the Ki value, the greater is the binding affinity.
# Bcl-2 protein, sequence (P10415 whole entry): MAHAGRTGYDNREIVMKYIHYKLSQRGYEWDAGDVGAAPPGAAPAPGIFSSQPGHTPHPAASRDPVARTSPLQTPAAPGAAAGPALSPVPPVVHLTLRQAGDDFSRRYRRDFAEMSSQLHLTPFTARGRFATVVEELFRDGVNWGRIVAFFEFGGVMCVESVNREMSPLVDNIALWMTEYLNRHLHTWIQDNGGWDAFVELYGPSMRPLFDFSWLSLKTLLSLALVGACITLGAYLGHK
row,Structure (SMILES),Ki [pM]
1,"CC1(C)CCC(CN2CCN(c3ccc(C(=O)NS(=O)(=O)c4ccc(NC(=O)N5CCOCC5)c([N+](=O)[O-])c4)c(Oc4cnc5[nH]ccc5c4)c3)CC2)=C(c2ccc(Cl)cc2)C1 [Compound 373, N-(4-{[4-(4-{[2-(4-chlorophenyl)-4,4-dimethylcyclohex-1-en-1-yl]methyl}piperazin-1-yl)-2-(1H-pyrrolo[2,3-b]pyridin-5-yloxy)benzoyl]sulfamoyl}-2-nitrophenyl)morpholine-4-carboxamide]",< 1
2,"COCC1CCC(CNc2ccc(S(=O)(=O)NC(=O)c3ccc(N4CCN(CC5=C(c6ccc(Cl)cc6)CC(C)(C)CC5)CC4)cc3Oc3cnc4[nH]ccc4c3)cc2[N+](=O)[O-])CC1 (stereo not shown) [Compound 374, 4-(4-{[2-(4-chlorophenyl)-4,4-dimethylcyclohex-1-en-1-yl]methyl}piperazin-1-yl)-N-{[4-({[4-(methoxymethyl)cyclohexyl]methyl}amino)-3-nitrophenyl]sulfonyl}-2-(1H-pyrrolo[2,3-b]pyridin-5-yloxy)benzamide]",< 1
3,"CC1(C)CCC(CN2CCN(c3ccc(C(=O)NS(=O)(=O)c4cnc(NC[C@H]5CC[C@](C)(O)CC5)c([N+](=O)[O-])c4)c(Oc4cnc5[nH]ccc5c4)c3)CC2)=C(c2ccc(Cl)cc2)C1 [Compound 376, 4-(4-{[2-(4-chlorophenyl)-4,4-dimethylcyclohex-1-en-1-yl]methyl}piperazin-1-yl)-N-[(6-{[(cis-4-hydroxy-4-methylcyclohexyl)methyl]amino}-5-nitropyridin-3-yl)sulfonyl]-2-(1H-pyrrolo[2,3-b]pyridin-5-yloxy)benzamide]",< 1
4,"COC1(C)CCC(c2ccc(Cl)cc2)=C(CN2CCN(c3ccc(C(=O)NS(=O)(=O)c4ccc(NC[C@H]5CC[C@@](C)(O)CC5)c([N+](=O)[O-])c4)c(Oc4cnc5[nH]ccc5c4)c3)CC2)C1 (stereo partly drawn) [Compound 377, 4-(4-{[2-(4-chlorophenyl)-5-methoxy-5-methylcyclohex-1-en-1-yl]methyl}piperazin-1-yl)-N-[(4-{[(trans-4-hydroxy-4-methylcyclohexyl)methyl]amino}-3-nitrophenyl)sulfonyl]-2-(1H-pyrrolo[2,3-b]pyridin-5-yloxy)benzamide]",< 1
5,"COC1(C)CCC(c2ccc(Cl)cc2)=C(CN2CCN(c3ccc(C(=O)NS(=O)(=O)c4ccc(NCC5CCOCC5)c([N+](=O)[O-])c4)c(Oc4cnc5[nH]ccc5c4)c3)CC2)C1 (stereo not shown) [Compound 378, 4-(4-{[2-(4-chlorophenyl)-5-methoxy-5-methylcyclohex-1-en-1-yl]methyl}piperazin-1-yl)-N-({3-nitro-4-[(tetrahydro-2H-pyran-4-ylmethyl)amino]phenyl}sulfonyl)-2-(1H-pyrrolo[2,3-b]pyridin-5-yloxy)benzamide]",< 1

# Tested on: not listed separately
# Experiment: log D at pH 7.4 by an HPLC method
# Assay type: physicochemical
# Conditions: not given
# Text: Table 2 below presents data for log D (a parameter related to lipophilicity) at pH 7.4, as determined by an HPLC method, for representative compounds.
row,Structure (SMILES),chromatographic logD
1,"CC1(C)CCC(CN2CCN(c3ccc(C(=O)NS(=O)(=O)c4ccc(NCC5CCOCC5)c([N+](=O)[O-])c4)c(Oc4cnc5[nH]ccc5c4)c3)CC2)=C(c2ccc(Cl)cc2)C1 [Compound 5, 4-(4-{[2-(4-chlorophenyl)-4,4-dimethylcyclohex-1-en-1-yl]methyl}piperazin-1-yl)-N-({3-nitro-4-[(tetrahydro-2H-pyran-4-ylmethyl)amino]phenyl}sulfonyl)-2-(1H-pyrrolo[2,3-b]pyridin-5-yloxy)benzamide]",5.37
2,"CN1CCN(Nc2ccc(S(=O)(=O)NC(=O)c3ccc(N4CCN(CC5=C(c6ccc(Cl)cc6)CC(C)(C)CC5)CC4)cc3Oc3cnc4[nH]ccc4c3)cc2[N+](=O)[O-])CC1 [Compound 6, 4-(4-{[2-(4-chlorophenyl)-4,4-dimethylcyclohex-1-en-1-yl]methyl}piperazin-1-yl)-N-({4-[(4-methylpiperazin-1-yl)amino]-3-nitrophenyl}sulfonyl)-2-(1H-pyrrolo[2,3-b]pyridin-5-yloxy)benzamide]",5.74
3,"CC1(C)CCC(CN2CCN(c3ccc(C(=O)NS(=O)(=O)c4ccc(N[C@H]5CC[C@H](N6CCOCC6)CC5)c([N+](=O)[O-])c4)c(Oc4cnc5[nH]ccc5c4)c3)CC2)=C(c2ccc(Cl)cc2)C1 [Compound 9, trans-4-(4-{[2-(4-chlorophenyl)-4,4-dimethylcyclohex-1-en-1-yl]methyl}piperazin-1-yl)-N-({4-[(4-morpholin-4-ylcyclohexyl)amino]-3-nitrophenyl}sulfonyl)-2-(1H-pyrrolo[2,3-b]pyridin-5-yloxy)benzamide]",5.71
4,"CC1(C)CCC(CN2CCN(c3ccc(C(=O)NS(=O)(=O)c4ccc(NCC5CCOCC5)c([N+](=O)[O-])c4)c(Oc4ccc5[nH]ccc5c4)c3)CC2)=C(c2ccc(Cl)cc2)C1 [Compound 18, 4-(4-{[2-(4-chlorophenyl)-4,4-dimethylcyclohex-1-en-1-yl]methyl}piperazin-1-yl)-2-(1H-indol-5-yloxy)-N-({3-nitro-4-[(tetrahydro-2H-pyran-4-ylmethyl)amino]phenyl}sulfonyl)benzamide]",6.35
5,"COCCNc1ccc(S(=O)(=O)NC(=O)c2ccc(N3CCN(CC4=C(c5ccc(Cl)cc5)CC(C)(C)CC4)CC3)cc2Oc2ccc3[nH]ccc3c2)cc1[N+](=O)[O-] [Compound 20, 4-(4-{[2-(4-chlorophenyl)-4,4-dimethylcyclohex-1-en-1-yl]methyl}piperazin-1-yl)-2-(1H-indol-5-yloxy)-N-({4-[(2-methoxyethyl)amino]-3-nitrophenyl}sulfonyl)benzamide]",6.24
6,"O=C(NS(=O)(=O)c1ccc(NCC2CCOCC2)c([N+](=O)[O-])c1)c1ccc(N2CCN(Cc3ccccc3-c3ccc(Cl)cc3)CC2)cc1Oc1ccc2[nH]ccc2c1 [Compound 87, 4-{4-[(4′-chloro-1,1′-biphenyl-2-yl)methyl]piperazin-1-yl}-2-(1H-indol-5-yloxy)-N-({3-nitro-4-[(tetrahydro-2H-pyran-4-ylmethyl)amino]phenyl}sulfonyl)benzamide]",5.86
7,"CC1(C)CCC(CN2CCN(c3ccc(C(=O)NS(=O)(=O)c4ccc(NC5CCN(C6CCOCC6)CC5)c([N+](=O)[O-])c4)c(Oc4ccc5[nH]ccc5c4)c3)CC2)=C(c2ccc(Cl)cc2)C1 [Compound 89, 4-(4-{[2-(4-chlorophenyl)-4,4-dimethylcyclohex-1-en-1-yl]methyl}piperazin-1-yl)-2-(1H-indol-5-yloxy)-N-({3-nitro-4-[(1-tetrahydro-2H-pyran-4-ylpiperidin-4-yl)amino]phenyl}sulfonyl)benzamide]",6.21
8,"CN1CCC(Nc2ccc(S(=O)(=O)NC(=O)c3ccc(N4CCN(CC5=C(c6ccc(Cl)cc6)CC(C)(C)CC5)CC4)cc3Oc3ccc4[nH]ccc4c3)cc2[N+](=O)[O-])CC1 [Compound 90, 4-(4-{[2-(4-chlorophenyl)-4,4-dimethylcyclohex-1-en-1-yl]methyl}piperazin-1-yl)-2-(1H-indol-5-yloxy)-N-({4-[(1-methylpiperidin-4-yl)amino]-3-nitrophenyl}sulfonyl)benzamide]",6.69
9,"CN1CCN(Nc2ccc(S(=O)(=O)NC(=O)c3ccc(N4CCN(CC5=C(c6ccc(Cl)cc6)CC(C)(C)CC5)CC4)cc3Oc3ccc4[nH]ccc4c3)cc2[N+](=O)[O-])CC1 [Compound 91, 4-(4-{[2-(4-chlorophenyl)-4,4-dimethylcyclohex-1-en-1-yl]methyl}piperazin-1-yl)-2-(1H-indol-5-yloxy)-N-({4-[(4-methylpiperazin-1-yl)amino]-3-nitrophenyl}sulfonyl)benzamide]",6.59
10,"CC1(C)CCC(CN2CCN(c3ccc(C(=O)NS(=O)(=O)c4ccc(OCC5COCCO5)c([N+](=O)[O-])c4)c(Oc4ccc5[nH]ccc5c4)c3)CC2)=C(c2ccc(Cl)cc2)C1 (stereo not shown) [Compound 92, 4-(4-{[2-(4-chlorophenyl)-4,4-dimethylcyclohex-1-en-1-yl]methyl}piperazin-1-yl)-N-{[4-(1,4-dioxan-2-ylmethoxy)-3-nitrophenyl]sulfonyl}-2-(1H-indol-5-yloxy)benzamide]",5.6
11,"CC1(C)CCC(CN2CCN(c3ccc(C(=O)NS(=O)(=O)c4cnc(OCC5(F)CCOCC5)c(C(F)(F)F)c4)c(Oc4cnc5[nH]ccc5c4)c3)CC2)=C(c2ccc(Cl)cc2)C1 [Compound 208, 4-(4-{[2-(4-chlorophenyl)-4,4-dimethylcyclohex-1-en-1-yl]methyl}piperazin-1-yl)-N-{[6-[(4-fluorotetrahydro-2H-pyran-4-yl)methoxy]-5-(trifluoromethyl)pyridin-3-yl]sulfonyl}-2-(1H-pyrrolo[2,3-b]pyridin-5-yloxy)benzamide]",5.57
12,"CC1(C)CCC(CN2CCN(c3ccc(C(=O)NS(=O)(=O)c4ccc(NCC5CCC(F)(F)CC5)c([N+](=O)[O-])c4)c(Oc4cnc5[nH]ccc5c4)c3)CC2)=C(c2ccc(Cl)cc2)C1 [Compound 239, 4-(4-{[2-(4-chlorophenyl)-4,4-dimethylcyclohex-1-en-1-yl]methyl}piperazin-1-yl)-N-[(4-{[(4,4-difluorocyclohexyl)methyl]amino}-3-nitrophenyl)sulfonyl]-2-(1H-pyrrolo[2,3-b]pyridin-5-yloxy)benzamide]",5.92
13,"CC1(C)CCC(CN2CCN(c3ccc(C(=O)NS(=O)(=O)c4cnc(NCC5(F)CCOCC5)c(Cl)c4)c(Oc4cnc5[nH]ccc5c4)c3)CC2)=C(c2ccc(Cl)cc2)C1 [Compound 242, N-[(5-chloro-6-{[(4-fluorotetrahydro-2H-pyran-4-yl)methyl]amino}pyridin-3-yl)sulfonyl]-4-(4-{[2-(4-chlorophenyl)-4,4-dimethylcyclohex-1-en-1-yl]methyl}piperazin-1-yl)-2-(1H-pyrrolo[2,3-b]pyridin-5-yloxy)benzamide]",5.51
14,"CC1(C)CCC(CN2CCN(c3ccc(C(=O)NS(=O)(=O)c4ccc(NC[C@H]5CC[C@H](C#N)CC5)c([N+](=O)[O-])c4)c(Oc4cnc5[nH]ccc5c4)c3)CC2)=C(c2ccc(Cl)cc2)C1 [Compound 276, 4-(4-{[2-(4-chlorophenyl)-4,4-dimethylcyclohex-1-en-1-yl]methyl}piperazin-1-yl)-N-[(4-{[(trans-4-cyanocyclohexyl)methyl]amino}-3-nitrophenyl)sulfonyl]-2-(1H-pyrrolo[2,3-b]pyridin-5-yloxy)benzamide]",5.59
